Experimental data as given in PubChem BioAssay AID200 (DTP/NCI, 2004).
Values joined by “and” are separate entries in the source; they are usually repeats but may differ in a detail not shown here. Equal entries are not always repeated. Inconclusive results and toxic doses are left out.

System: B6C3F1 mice, B16 melanoma ip, median survival T/C
Assay: NCI In Vivo Anticancer Drug Screen. Data for tumor model B16 Melanoma (intraperitoneal) in B6C3F1 mice
Conditions: endpoint: median survival time, schedule: Q01DX009 (ip), higher = longer survival
In short: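 Values are T/C ratios: the measurement in treated animals divided by that in vehicle-treated controls, using survival or tumor size in mice carrying transplantable tumors.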

[1] = dose: 25.0 mg/kg/injection, vehicle: Klucel (hydroxypropylcellulose) (HPC)
[2] = dose: 50.0 mg/kg/injection, vehicle: Klucel (hydroxypropylcellulose) (HPC)
[3] = dose: 25.0 mg/kg/injection, vehicle: saline
[4] = dose: 50.0 mg/kg/injection, vehicle: saline
[5] = dose: 100.0 mg/kg/injection, vehicle: saline
[6] = dose: 200.0 mg/kg/injection, vehicle: saline
[7] = dose: 400.0 mg/kg/injection, vehicle: saline
[8] = dose: 50.0 mg/kg/injection, vehicle: saline with Tween-80
[9] = dose: 100.0 mg/kg/injection, vehicle: saline with Tween-80
[10] = dose: 200.0 mg/kg/injection, vehicle: saline with Tween-80

Q: What does the source list for `NC(=S)c1ncn(C2OC(COC=O)C(OC=O)C2OC=O)c1NC=O` (centres undefined)?
A: T/C [1]: 100 % of control; T/C [2]: 100 % of control; T/C (dose: 100.0 mg/kg/injection, vehicle: Klucel (hydroxypropylcellulose) (HPC)): 92 % of control; T/C (dose: 200.0 mg/kg/injection, vehicle: Klucel (hydroxypropylcellulose) (HPC)): 87 % of control

Q: `O=C(NC(Cc1ccc(I)cc1)C(=O)O)c1ccc(Br)cc1` (centres undefined) was tested. Which T/C (dose: 25.0 mg/kg/injection, vehicle: sodium bicarbonate) did it give?
A: 96 % of control

Q: What about the T/C (dose: 50.0 mg/kg/injection, vehicle: sodium bicarbonate) of the same compound?
A: 104 % of control

Q: What about the T/C (dose: 100.0 mg/kg/injection, vehicle: sodium bicarbonate) of the same compound?
A: 101 % of control

Q: And the T/C (dose: 200.0 mg/kg/injection, vehicle: sodium bicarbonate)?
A: 97 % of control

Q: Which results are given for `O=C(O)CNc1ccc(O)cc1`?
A: T/C [3]: 104 % of control; T/C [4]: 105 % of control; T/C (dose: 75.0 mg/kg/injection, vehicle: saline): 105 % of control; T/C [5]: 112 % of control and 121 % of control; T/C (dose: 150.0 mg/kg/injection, vehicle: saline): 105 % of control; T/C [6]: 100 % of control and 101 % of control

Q: Which results are given for `C1CC[N-]CC1.[Cl][Pt+2][Cl].[NH-]C1CC1`?
A: T/C (dose: 1.56 mg/kg/injection, vehicle: saline with Tween-80): 117 % of control; T/C (dose: 3.12 mg/kg/injection, vehicle: water): 106 % of control; T/C (dose: 6.25 mg/kg/injection, vehicle: water): 116 % of control; T/C (dose: 12.5 mg/kg/injection, vehicle: saline with Tween-80): 159 % of control

Q: What does the source list for `CCN1C[C@]2(COC)[C@H](O)C[C@H](OC)[C@]34C1[C@H]([C@H](OC)[C@H]23)[C@]1(OC(C)=O)[C@H]2[C@@H](OC(=O)c3ccccc3)[C@](O)(C[C@H]24)[C@@H](OC)[C@@H]1O`?
A: T/C (dose: 7.5 micrograms/kg/injection, vehicle: saline): 118 % of control; T/C (dose: 15.0 micrograms/kg/injection, vehicle: saline): 115 % of control; T/C (dose: 30.0 micrograms/kg/injection, vehicle: saline): 99 % of control; T/C (dose: 60.0 micrograms/kg/injection, vehicle: saline): 122 % of control

Q: What does the source list for `c1ccc2c3c(ccc2c1)Sc1ccc2ccccc2c1N3`?
A: T/C [4]: 112 % of control; T/C [5]: 112 % of control; T/C [6]: 112 % of control; T/C [7]: 123 % of control

Q: `CC(NC(=O)c1ccccc1)C(=O)O` (centres undefined) was tested. Which T/C (dose: 40.0 mg/kg/injection, vehicle: saline with Tween-80) did it give?
A: 97 % of control

Q: What about the T/C (dose: 80.0 mg/kg/injection, vehicle: saline with Tween-80) of the same compound?
A: 90 % of control

Q: `COc1nc(C(Cl)(Cl)Cl)c(Cl)c(OC)c1Cl` was tested. Which T/C [1] did it give?
A: 96 % of control

Q: And the T/C [2]?
A: 104 % of control

Q: Which T/C [3] does the source give for `CC(=O)Oc1c(C)[nH]ccc1=O` here?
A: 93 % of control and 104 % of control

Q: What about the T/C [4] of the same compound?
A: 108 % of control and 105 % of control

Q: And the T/C [5]?
A: 115 % of control and 94 % of control

Q: And the T/C [6]?
A: 94 % of control and 106 % of control

Q: With `O=NN(CCCl)C(=O)Oc1ccc(OC(=O)N(CCCl)N=O)cc1` as the compound, how does the T/C (dose: 3.12 mg/kg/injection, vehicle: Klucel (hydroxypropylcellulose) (HPC)) read?
A: 112 % of control

Q: And the T/C (dose: 6.25 mg/kg/injection, vehicle: Klucel (hydroxypropylcellulose) (HPC))?
A: 107 % of control

Q: What about the T/C (dose: 12.5 mg/kg/injection, vehicle: Klucel (hydroxypropylcellulose) (HPC)) of the same compound?
A: 107 % of control

Q: Which T/C (dose: 25.0 mg/kg/injection, vehicle: saline with Tween-80) does the source give for `Cn1c(=O)c(-c2ccccc2)[n+]([O-])c2ccccc21` here?
A: 98 % of control

Q: And the T/C [8]?
A: 122 % of control

Q: And the T/C [9]?
A: 101 % of control

Q: What about the T/C [10] of the same compound?
A: 94 % of control

Q: With `O=c1ncccn1[C@@H]1O[C@H](CO)[C@H](O)C1O` (some centres undefined) as the compound, how does the T/C [3] read?
A: 122 % of control

Q: And the T/C [4]?
A: 116 % of control and 107 % of control

Q: What about the T/C [5] of the same compound?
A: 122 % of control

Q: And the T/C [6]?
A: 120 % of control and 122 % of control

Q: What about the T/C [7] of the same compound?
A: 180 % of control

Q: Which results are given for `NC(=O)NC(CC(=O)O)C(=O)O` (centres undefined)?
A: T/C [8]: 113 % of control; T/C [9]: 95 % of control; T/C [10]: 102 % of control
